Experimental data published in US20250222116A1, “PARP-1 DEGRADATION AGENT AND USE THEREOF” (XIZANG HAISCO PHARMACEUTICAL CO., LTD., priority 2021, published 2025).
Where two headings read alike, the source gives them in different places.

Legend:
[1] = target: PARP1 (Homo sapiens (Human), UniProt P09874); test: PARP1 protein expression level in MDA-MB-436 cells; type: cell-based; details: 100 nM, 24 hours
Method: (§1) MDA-MB-436 cells were placed in a complete DMEM medium (supplemented with 15% FBS; 10 μg/mL Insulin; 16 μg/mL Glutathione and 1% penicillin-streptomycin solution), and cultured at 37° C. under CO2-free conditions. The cells in the logarithmic growth phase were collected, the cell density was adjusted to 2×10^5 cells/well with the culture medium, and the cells were added to a 6-well cell culture plate at a volume of 1 mL/well. The compound to be tested was prepared to 2-fold the final concentration, 1 mL of the compounds at different concentrations were added to administration wells, a medium containing 0.2% DMSO was added to control wells, and the plate was incubated for 24 hours at 37° C. The cells were collected into a 1.5 mL centrifuge tube, 25 μL of RIPA lysis buffer (containing 1× protease inhibitor cocktail) was added, and the cells were lysed on ice for 15 minutes and centrifuged at 12000 rpm/min at 4° C. for 10 minutes. The supernatant was collected and the protein content was determined using the BCA method. The protein sample to be tested was diluted to 0.8 mg/mL, PARP1 was detected using a fully automated protein expression quantitative analyzer (ProteinSimple), and the internal reference protein was 3-actin (both antibodies were from CST). The software (Compass for SW) of the fully automated protein expression quantitative analyzer was used to process the raw data and calculate the peak area and the PARP1 expression rate relative to the control group.
as §1, with “L-15” for “DMEM”, “mL/well and cultured overnight. On day 2, the” for “mL/well. The”, “group. DC50 values were calculated using a four-parameter non-linear fitting model in Graphpad 8.3.0 software.” for “group.”

[2] = test system: breast tumor cells MDA-MB-436; test: MDA-MB-436 cell activity test (CellTiter-Glo, 7 days); type: cell-based, human; details: for IC50 / Max inh. % 10 μM: MDA-MB-436 cells; for IC50: 7 days incubation, read-out: IC50 (nM), MDA-MB-436 cell inhibitory activity; for inhibition at 10 µM: MDA-MB-436, MDA-MB-436 cells, read-out: Max inh. % 10 μM
Method: Breast tumor cells MDA-MB-436 were purchased from ATCC, the culture medium was Leibovitz's L-15+10% FBS, and the cells were cultured in a CO2-free incubator at 37° C. On day 1, the cells in the exponential growth phase were collected, and the cell suspension was adjusted to 4000 cells/135 μL with the culture medium. 135 μL of the cell suspension was added to each well of a 96-well cell culture plate and incubated overnight. On day 2, compounds at different concentrations were added, and the plate was placed in the incubator and incubated for 7 days. After the culture was completed, according to operation instructions for a CellTiter-Glo kit (Promega, G7573), 75 μL of CTG solution, which was already pre-melted and equilibrated to room temperature, was added to each well, and the mixture was uniformly mixed for 2 minutes using a microplate shaker. The plate was placed at room temperature for 10 minutes, and then […] signal values were determined using an Envision2104 plate reader (PerkinElmer). The inhibition rate was calculated using formula (1), where RLUcompound was the readout of the drug treated group, RLUcontrol was the average value of the solvent control group, and RLUblank was the average value of the cell-free well. The IC50 value was calculated using GraphPad Prism software.

[3] = Homo sapiens, MDA-MB-436, 168 h

Chain of PARP1 (P09874 whole entry): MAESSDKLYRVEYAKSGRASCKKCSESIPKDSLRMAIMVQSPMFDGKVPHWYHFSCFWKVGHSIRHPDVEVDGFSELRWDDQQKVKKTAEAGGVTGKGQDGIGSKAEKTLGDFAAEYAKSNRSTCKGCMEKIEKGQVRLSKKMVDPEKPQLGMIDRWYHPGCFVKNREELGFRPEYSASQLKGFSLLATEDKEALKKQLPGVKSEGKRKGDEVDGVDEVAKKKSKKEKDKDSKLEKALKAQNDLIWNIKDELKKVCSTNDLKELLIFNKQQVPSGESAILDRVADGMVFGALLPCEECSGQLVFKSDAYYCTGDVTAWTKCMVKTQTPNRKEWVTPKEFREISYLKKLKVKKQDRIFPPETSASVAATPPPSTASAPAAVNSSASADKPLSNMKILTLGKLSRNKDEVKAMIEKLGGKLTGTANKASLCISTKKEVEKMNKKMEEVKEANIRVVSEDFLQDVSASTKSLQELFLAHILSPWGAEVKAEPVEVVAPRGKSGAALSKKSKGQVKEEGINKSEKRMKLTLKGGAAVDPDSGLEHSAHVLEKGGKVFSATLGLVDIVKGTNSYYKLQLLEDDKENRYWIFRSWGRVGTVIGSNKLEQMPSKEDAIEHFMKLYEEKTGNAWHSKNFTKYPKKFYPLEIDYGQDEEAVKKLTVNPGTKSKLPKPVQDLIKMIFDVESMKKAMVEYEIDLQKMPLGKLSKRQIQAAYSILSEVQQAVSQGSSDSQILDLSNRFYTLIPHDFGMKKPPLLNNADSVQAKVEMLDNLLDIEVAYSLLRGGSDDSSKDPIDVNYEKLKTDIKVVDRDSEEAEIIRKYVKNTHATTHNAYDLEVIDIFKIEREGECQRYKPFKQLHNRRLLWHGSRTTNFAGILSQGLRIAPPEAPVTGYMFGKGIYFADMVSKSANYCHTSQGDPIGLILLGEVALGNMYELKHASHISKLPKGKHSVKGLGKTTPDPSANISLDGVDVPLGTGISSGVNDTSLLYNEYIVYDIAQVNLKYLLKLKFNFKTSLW

SMILES	PARP1 degradation rate @ 100 nM [1] [%]	IC50 [2, 3] [nM]	inhibition at 10 µM ([2]; Homo sapiens) [%]	Max inh. % 10 μM [2] [%]	IC50 [2] [nM]
CCc1cc2ncc(CN3CCN(c4ccc(C(=O)NC5CCN(c6ccc7c(c6)CN(C6CCC(=O)NC6=O)C7=O)CC5)nc4)CC3)cc2[nH]c1=O (stereo not drawn) [Compound 31, N-(1-(2-(2,6-dioxopiperidin-3-yl)-1-oxoisoindolin-5-yl)piperidin-4-yl)-5-(4-((7-ethyl-6-oxo-5,6-dihydro-1,5-naphthyridin-3-yl)methyl)piperazin-1-yl)picolinamide]	92.1				
CCc1cc2ncc(CN3CCN(c4ccc(C(=O)NC5CCN(C(=O)CC67CC8C[C@H](C6)C[C@H](C8)C7)CC5)nc4)CC3)cc2[nH]c1=O [Compound 12, N-(1-(2-((3R,5R)-adamantan-1-yl)acetyl)piperidin-4-yl)-5-(4-((7-ethyl-6-oxo-5,6-dihydro-1,5-naphthyridin-3-yl)methyl)piperazin-1-yl)picolinamide]		44	89.6		
CCc1cc2ncc(CN3CC=C(c4ccc(C(=O)NC5CCN(c6cccc(N7CCC(=O)NC7=O)c6)CC5)nc4)CC3)cc2[nH]c1=O [Compound 63, N-(1-(3-(2,4-dioxotetrahydropyrimidin-1(2H)-yl)phenyl)piperidin-4-yl)-1′-((7-ethyl-6-oxo-5,6-dihydro-1,5-naphthyridin-3-yl)methyl)-1′,2′,3′,6′-tetrahydro-[3,4′-bipyridine]-6-carboxamide]		16.1	83.1		
CCc1cc2ncc(CN3CCN(c4ccc(C(=O)NC5CC(Nc6ccc7c(c6)C(=O)N([C@@H]6CCC(=O)NC6=O)C7=O)C5)nc4)CC3)cc2[nH]c1=O (stereo partly drawn) [Compound 42, N-((1r, 3r)-3-((2-(2,6-dioxopiperidin-3-yl)-1,3-dioxoisoindolin-5-yl)amino)cyclobutyl)-5-(4-((7-ethyl-6-oxo-5,6-dihydro-1,5-naphthyridin-3-yl)methyl)piperazin-1-yl)picolinamide]				86.3	17
CCc1cc2ncc(CN3CCN(c4ccc(C(=O)NC5CCN(c6cccc7c6C(=O)N(C6CCC(=O)NC6=O)C7=O)CC5)nc4)CC3)cc2[nH]c1=O (stereo not drawn) [Compound 19, N-(1-(2-(2,6-dioxopiperidin-3-yl)-1,3-dioxoisoindolin-4-yl)piperidin-4-yl)-5-(4-((7-ethyl-6-oxo-5,6-dihydro-1,5-naphthyridin-3-yl)methyl)piperazin-1-yl)picolinamide]		21	90.3		
CCc1cc2ncc(CN3CC=C(c4ccc(C(=O)NC5CCN(c6ccc7c(c6)C(=O)N(C6CCC(=O)NC6=O)C7=O)CC5)nc4)CC3)cc2[nH]c1=O (stereo not drawn) [Compound 49, N-(1-(2-(2,6-dioxopiperidin-3-yl)-1,3-dioxoisoindolin-5-yl)piperidin-4-yl)-1′-((7-ethyl-6-oxo-5,6-dihydro-1,5-naphthyridin-3-yl)methyl)-1′,2′,3′,6′-tetrahydro-[3,4′-bipyridine]-6-carboxamide]		101	93.8		
CCc1cc2ncc(CN3CCN(c4ccc(C(=O)N[C@H]5C[C@@H](Nc6cc7c(cc6F)C(=O)N(C6CCC(=O)NC6=O)C7=O)C5)nc4)CC3)cc2[nH]c1=O (stereo partly drawn) [Compound 41, N-((1s,3s)-3-((2-(2,6-dioxopiperidin-3-yl)-6-fluoro-1,3-dioxoisoindolin-5-yl)amino)cyclobutyl)-5-(4-((7-ethyl-6-oxo-5,6-dihydro-1,5-naphthyridin-3-yl)methyl)piperazin-1-yl)picolinamide]		11	85.7		
CCc1cc2ncc(CN3CCN(c4ccc(C(=O)NC5CN(c6cc7c(cc6F)C(=O)N(C6CCC(=O)NC6=O)C7=O)C5)nc4)CC3)cc2[nH]c1=O (stereo not drawn) [Compound 17, N-(1-(2-(2,6-dioxopiperidin-3-yl)-6-fluoro-1,3-dioxoisoindolin-5-yl)azetidin-3-yl)-5-(4-((7-ethyl-6-oxo-5,6-dihydro-1,5-naphthyridin-3-yl)methyl)piperazin-1-yl)picolinamide]		61	99		
CCc1cc2ncc(CN3CCN(c4ccc(C(=O)NC5CCC(Oc6ccc7c(c6)C(=O)N(C6CCC(=O)NC6=O)C7=O)CC5)nc4)CC3)cc2[nH]c1=O (stereo not drawn) [Compound 67, N-((1s,4s)-4-((2-(2,6-dioxopiperidin-3-yl)-1,3-dioxoisoindolin-5-yl)oxy)cyclohexyl)-5-(4-((7-ethyl-6-oxo-5,6-dihydro-1,5-naphthyridin-3-yl)methyl)piperazin-1-yl)picolinamide]				96.2	100
CCc1cc2ncc(CN3CCN(c4ccc(C(=O)N[C@H]5CCN(c6ccc7c(c6)C(=O)N(C6CCC(=O)NC6=O)C7=O)C5)nc4)CC3)cc2[nH]c1=O (stereo partly drawn) [Compound 21, N-((3S)-1-(2-(2,6-dioxopiperidin-3-yl)-1,3-dioxoisoindolin-5-yl)pyrrolidin-3-yl)-5-(4-((7-ethyl-6-oxo-5,6-dihydro-1,5-naphthyridin-3-yl)methyl)piperazin-1-yl)picolinamide]		25	88.9		
CCc1cc2ncc(CN3CCN(c4ccc(C(=O)N[C@H]5CC[C@@H](Nc6ccc7c(c6)C(=O)N(C6CCC(=O)NC6=O)C7=O)CC5)nc4)CC3)cc2[nH]c1=O (stereo partly drawn) [Compound 27, N-((1s,4s)-4-((2-(-2,6-dioxopiperidin-3-yl)-1,3-dioxoisoindolin-5-yl)amino)cyclohexyl)-5-(4-((7-ethyl-6-oxo-5,6-dihydro-1,5-naphthyridin-3-yl)methyl)piperazin-1-yl)picolinamide]		15	95.8		
CCc1cc2ncc(CN3CCN(c4ccc(C(=O)N[C@H]5C[C@H](Oc6ccc7c(c6)C(=O)N(C6CCC(=O)NC6=O)C7=O)C5)nc4)CC3)cc2[nH]c1=O (stereo partly drawn) [Compound 59, N-((1r,3r)-3-((2-(2,6-dioxopiperidin-3-yl)-1,3-dioxoisoindolin-5-yl)oxy)cyclobutyl)-5-(4-((7-ethyl-6-oxo-5,6-dihydro-1,5-naphthyridin-3-yl)methyl)piperazin-1-yl)picolinamide]		38	81.7		
CCc1cc2ncc(CN3CCN(c4ccc(C(=O)NC5CN(C(=O)CC67CC8C[C@H](C6)C[C@H](C8)C7)C5)nc4)CC3)cc2[nH]c1=O [Compound 13, N-(1-(2-((3R,5R)-adamantan-1-yl)acetyl)azetidin-3-yl)-5-(4-((7-ethyl-6-oxo-5,6-dihydro-1,5-naphthyridin-3-yl)methyl)piperazin-1-yl)picolinamide]		5	89.7		
CCc1cc2ncc(CN3CC=C(c4ccc(C(=O)NC5CCN(c6cccc(NC7CCC(=O)NC7=O)c6)CC5)nc4)CC3)cc2[nH]c1=O (stereo not drawn) [Compound 65, N-(1-(3-((2,6-dioxopiperidin-3-yl)amino)phenyl)piperidin-4-yl)-1′-((7-ethyl-6-oxo-5,6-dihydro-1,5-naphthyridin-3-yl)methyl)-1′,2′,3′,6′-tetrahydro-[3,4′-bipyridine]-6-carboxamide]		39.5	76.8		
